In publication PMC3306470 (ACS chemical biology, 2012):

Experiments:
PARG [1] = assay: PARG in vitro assay; conditions: for PARG inhibition: 0.5 h incubation with 32P-PAR
PARG [2] = assay: PARG in vitro assay under the original salicylanilide conditions; conditions: 10 μM; phosphate buffer, 5 min; both in the absence and presence of 0.1% Triton X-100
[3] = molecular target: endogenous PARG in whole cell lysate generated from mouse embryonic fibroblasts (MEFs) (Mus musculus, UniProt O88622); assay: Processing of 32P-PAR by MEF whole cell lysate; assay type: biochemical; conditions: 25 μM, MEF lysate 1.5 μg
Chain of endogenous PARG in whole cell lysate generated from mouse embryonic fibroblasts (MEFs) (O88622 whole entry): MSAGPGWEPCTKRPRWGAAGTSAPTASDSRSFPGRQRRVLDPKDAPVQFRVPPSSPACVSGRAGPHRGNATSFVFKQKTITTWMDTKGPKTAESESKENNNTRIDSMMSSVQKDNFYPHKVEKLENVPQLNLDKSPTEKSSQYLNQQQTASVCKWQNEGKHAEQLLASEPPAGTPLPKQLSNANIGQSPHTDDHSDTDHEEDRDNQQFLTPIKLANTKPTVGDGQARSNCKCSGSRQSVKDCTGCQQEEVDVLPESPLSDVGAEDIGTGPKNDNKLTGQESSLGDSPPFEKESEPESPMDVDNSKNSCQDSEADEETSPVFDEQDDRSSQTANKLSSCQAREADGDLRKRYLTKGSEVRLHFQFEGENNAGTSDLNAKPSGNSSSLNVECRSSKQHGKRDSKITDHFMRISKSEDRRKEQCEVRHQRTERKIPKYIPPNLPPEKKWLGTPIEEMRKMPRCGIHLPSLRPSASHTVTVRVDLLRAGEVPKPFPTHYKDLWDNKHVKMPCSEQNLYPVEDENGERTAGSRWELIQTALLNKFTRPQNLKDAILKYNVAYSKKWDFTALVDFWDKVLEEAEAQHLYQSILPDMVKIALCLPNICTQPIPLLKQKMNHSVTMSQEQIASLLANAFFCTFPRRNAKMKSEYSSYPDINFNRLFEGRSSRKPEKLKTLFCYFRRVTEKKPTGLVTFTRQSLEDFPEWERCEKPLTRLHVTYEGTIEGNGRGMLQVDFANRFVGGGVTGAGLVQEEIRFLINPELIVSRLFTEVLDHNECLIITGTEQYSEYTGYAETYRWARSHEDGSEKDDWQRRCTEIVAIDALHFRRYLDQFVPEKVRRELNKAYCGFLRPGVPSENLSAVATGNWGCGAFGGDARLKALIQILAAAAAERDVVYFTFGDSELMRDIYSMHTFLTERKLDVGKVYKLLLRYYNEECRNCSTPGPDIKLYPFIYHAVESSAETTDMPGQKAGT

PARG [4] = conditions: cited from earlier work
[5] = not told; cited from earlier work
ß-lactamase = assay: ß-Lactamase assay

intact PAR at 60 min [3] | inhibition of ß-lactamase (ß-lactamase; 50 μM, absence of detergent) | inhibition of ß-lactamase in the presence of detergent (ß-lactamase; 5-50 μM, 0.1% Triton X-100) | SMILES | PARG inhibition (PARG [1]; 0.5 μM) | PARG inhibition (PARG [1]; 25 μM) | PARG inhibition after prolonged incubation (PARG [1]; 0.5 – 25 μM, 2 h incubation with 32P-PAR) | PARG inhibition (PARG [2]) | partial inhibition of PARG (PARG [4]) | IC50 (PARG [4]; read-out: IC50 for PARG inhibition, literature value) | cell permeability [5] | effect of detergent on inhibition of PARG (PARG [1]; compound 50 μM, presence or absence of 0.1% Triton X-100, 2 h)
approx. 80% |  |  | Nc1ncnc2c1ncn2[C@@H]1O[C@H](CO[P@](=O)(O)O[P@@](=O)(O)OC[C@H]2NC[C@H](O)[C@@H]2O)[C@@H](O)[C@H]1O [ADP-HPD, Adenosine diphosphate (hydroxymethyl)pyrrolidinediol] | partially inhibited | 67% | only minimal PARG inhibition | complete inhibition | partial inhibition of PARG | 120 nM | lack of cell permeability | 
 | 100% | < 10% | Nc1c(/N=N/c2ccc(-c3ccc(/N=N/c4cc(S(=O)(=O)O)c5ccccc5c4N)cc3)cc2)cc(S(=O)(=O)O)c2ccccc12 [Congo Red] |  |  |  |  |  |  |  | complete loss of inhibition
